Assay [1] has as its system Streptomyces coelicolor. Description: Antimicrobial activity against apramycin-resistant cmlR2 null mutant Streptomyces coelicolor B756 after 48 hrs relative to wild type. It is filed as functional.
The subject of assay [2] is Streptomyces coelicolor. Description: Antimicrobial activity against apramycin-resistant cmlR1 null mutant Streptomyces coelicolor B754 after 48 hrs relative to wild type. It is filed as functional.
For assay [3], the system named is Streptomyces coelicolor. Description: Antimicrobial activity against Streptomyces coelicolor B758 overexpressing cmlR1 after 48 hrs relative to wild type. It is filed as functional.
Assay [4] concerns Streptomyces coelicolor. Description: Antimicrobial activity against Streptomyces coelicolor B759 overexpressing cmlR2 after 48 hrs relative to wild type. It is filed as functional.
Assay [5] concerns Streptomyces coelicolor. The assay is described as follows: Inhibition of MFS efflux pump in Streptomyces coelicolor assessed as reduction in chloramphenicol MIC at 25 ug/ml after 48 hrs relative to control.
In assay [6] the test system is Streptomyces coelicolor. The assay is described as follows: Inhibition of MFS efflux pump in apramycin-resistant cmlR2 null mutant Streptomyces coelicolor assessed as reduction in chloramphenicol MIC at 25 ug/ml after 48 hrs relative to control.
Assay [7] relates to Streptomyces coelicolor. Description: Inhibition of MFS efflux pump in apramycin-resistant cmlR1 null mutant Streptomyces coelicolor assessed as reduction in chloramphenicol MIC at 25 ug/ml after 48 hrs relative to control.
Assay [8] concerns Streptomyces coelicolor. The assay is described as follows: Inhibition of MFS efflux pump in apramycin-resistant cmlR2 null mutant Streptomyces coelicolor assessed as reduction in chloramphenicol MIC at 50 ug/ml after 48 hrs relative to control.
For assay [9], the system named is Streptomyces coelicolor. The assay is described as follows: Antimicrobial activity against Streptomyces coelicolor after 48 hrs. It is filed as functional.
The subject of assay [10] is Streptomyces coelicolor. Description: Inhibition of MFS efflux pump in Streptomyces coelicolor assessed as reduction in chloramphenicol MIC at 10 ug/ml after 48 hrs relative to control.
Assay [11] deals with Streptomyces coelicolor. Description: Inhibition of MFS efflux pump in apramycin-resistant cmlR2 null mutant Streptomyces coelicolor assessed as reduction in chloramphenicol MIC at 10 ug/ml after 48 hrs relative to control.
For assay [12], the system named is Streptomyces coelicolor. Description: Inhibition of MFS efflux pump in apramycin-resistant cmlR1 null mutant Streptomyces coelicolor assessed as reduction in chloramphenicol MIC at 75 ug/ml after 48 hrs relative to control.
The test system of assay [13] is Streptomyces coelicolor. Description: Inhibition of MFS efflux pump in apramycin-resistant cmlR1 null mutant Streptomyces coelicolor assessed as reduction in chloramphenicol MIC at 50 ug/ml after 48 hrs relative to control.
Assay [14] relates to Streptomyces coelicolor. The assay is described as follows: Inhibition of MFS efflux pump in Streptomyces coelicolor assessed as reduction in chloramphenicol MIC at 50 ug/ml after 48 hrs relative to control.
In assay [15] the test system is Streptomyces coelicolor. Description: Inhibition of MFS efflux pump in apramycin-resistant cmlR1 null mutant Streptomyces coelicolor assessed as reduction in chloramphenicol MIC at 10 ug/ml after 48 hrs relative to control.
In assay [16] the test system is Streptomyces coelicolor. Description: Inhibition of MFS efflux pump in apramycin-resistant cmlR2 null mutant Streptomyces coelicolor assessed as reduction in chloramphenicol MIC at 75 ug/ml after 48 hrs relative to control.
Assay [17] relates to Streptomyces coelicolor. Description: Inhibition of MFS efflux pump in Streptomyces coelicolor assessed as reduction in chloramphenicol MIC at 75 ug/ml after 48 hrs relative to control.

Values after ≈ are worked out from the molar mass of the structure shown. Peptide text beside a SMILES is read from it. * marks the point of attachment. βNA = c1ccc2cc(N*)ccc2c1

`CS(=O)(=O)c1ccc([C@@H](O)[C@@H](CO)NC(=O)C(Cl)Cl)cc1` [THIAMPHENICOL]: the “fold change (FC)” value in the assay on Streptomyces coelicolor [1] is listed as more than 10.
Take `CS(=O)(=O)c1ccc([C@@H](O)[C@@H](CF)NC(=O)C(Cl)Cl)cc1` [FLORFENICOL]: the “fold change (FC)” value in the assay with Streptomyces coelicolor [2] stood at 1.8; with Streptomyces coelicolor [1], 3.
For `O=C(N[C@H](CO)[C@H](O)c1ccc([N+](=O)[O-])cc1)C(Cl)Cl` [CHLORAMPHENICOL], the “fold change (FC)” value was 1.6 with Streptomyces coelicolor [2], 2 with Streptomyces coelicolor [3], 16 in the assay with Streptomyces coelicolor [1] and 4 in the assay with Streptomyces coelicolor [4].
A word on the MIC: it is the least concentration at which growth counts as inhibited. A higher MIC goes with a need for much substance. For the compound `N=C(N)NCCC[C@H](NC(=O)[C@@H](N)Cc1ccccc1)C(=O)Nc1ccc2ccccc2c1` [PABETAN] (H-Phe-Arg-βNA), the fold change (FC) with Streptomyces coelicolor [5] came to 3.2; with Streptomyces coelicolor [6], 1.7; in the assay on Streptomyces coelicolor [7] it was 3.3; in the assay on Streptomyces coelicolor [8] it was 1.7; in the assay with Streptomyces coelicolor [10], 2.7; with Streptomyces coelicolor [11], 1.7. Further, the fold change (FC) was 5 in the assay on Streptomyces coelicolor [12]; 3.3 in the assay on Streptomyces coelicolor [13]; 4 with Streptomyces coelicolor [14]; 2.5 with Streptomyces coelicolor [15]; 1.7 in the assay on Streptomyces coelicolor [16]; 8 with Streptomyces coelicolor [17]. The compound also displayed an MIC against Streptomyces coelicolor [9] of 200 µg/mL (≈ 448 µM).
Take `COC(=O)[C@H]1[C@H]2C[C@@H]3c4[nH]c5cc(OC)ccc5c4CCN3C[C@H]2C[C@@H](OC(=O)c2cc(OC)c(OC)c(OC)c2)[C@@H]1OC`: the fold change (FC) in the assay with Streptomyces coelicolor [5] stood at 2.7; in the assay with Streptomyces coelicolor [6], 2; with Streptomyces coelicolor [7], 2.5; in the assay with Streptomyces coelicolor [8] it was 2; in the assay with Streptomyces coelicolor [10], 1.3; in the assay with Streptomyces coelicolor [11], 1.3. Besides, the fold change (FC) in the assay with Streptomyces coelicolor [12] came out at 3.3; with Streptomyces coelicolor [13] it was 3.3; in the assay with Streptomyces coelicolor [14], 4; in the assay with Streptomyces coelicolor [15] it was 2.5; in the assay on Streptomyces coelicolor [16] it was 2; in the assay on Streptomyces coelicolor [17], 4.

The record behind these values is ChEMBL document CHEMBL1649248, “Two distinct major facilitator superfamily drug efflux pumps mediate chloramphenicol resistance in Streptomyces coelicolor” (2009).
